Target: T1, Protein mono-ADP-ribosyltransferase PARP12 (Homo sapiens, UniProt Q9H0J9)
T1 sequence (Q9H0J9 whole entry): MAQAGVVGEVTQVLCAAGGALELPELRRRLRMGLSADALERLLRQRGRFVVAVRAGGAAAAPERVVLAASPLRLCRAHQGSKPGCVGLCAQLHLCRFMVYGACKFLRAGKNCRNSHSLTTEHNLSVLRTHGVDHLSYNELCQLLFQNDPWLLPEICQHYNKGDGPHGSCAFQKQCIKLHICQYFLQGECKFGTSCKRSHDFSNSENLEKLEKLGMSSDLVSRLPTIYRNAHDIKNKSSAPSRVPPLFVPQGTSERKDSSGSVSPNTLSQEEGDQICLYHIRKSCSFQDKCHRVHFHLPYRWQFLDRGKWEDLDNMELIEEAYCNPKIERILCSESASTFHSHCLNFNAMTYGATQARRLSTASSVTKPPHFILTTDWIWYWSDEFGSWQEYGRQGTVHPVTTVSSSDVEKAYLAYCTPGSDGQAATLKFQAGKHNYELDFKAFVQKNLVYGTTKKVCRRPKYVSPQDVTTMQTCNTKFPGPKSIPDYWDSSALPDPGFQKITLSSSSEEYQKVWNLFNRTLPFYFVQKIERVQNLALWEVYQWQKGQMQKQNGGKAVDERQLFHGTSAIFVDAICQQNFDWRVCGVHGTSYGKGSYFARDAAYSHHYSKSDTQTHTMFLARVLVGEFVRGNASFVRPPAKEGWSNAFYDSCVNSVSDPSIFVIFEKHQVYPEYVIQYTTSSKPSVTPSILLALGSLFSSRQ
Experiment: Inhibition of N-terminal His-tagged thioredoxin-fused human ARTD12 (469 to 701 residues) expressed in Escherichia coli Rosetta2 (DE3) after 20 hrs in presence of NAD+
Conditions: not given

| SMILES | IC50 [µM] |
| --- | --- |
| NC(=O)c1ccc(Oc2ccc(C(=O)O)cc2)cc1 | > 10 |
| COc1ccc(C(N)=O)cc1 | > 10 |
| NC(=O)c1ccc(Oc2ccc(C=O)cc2)cc1 | > 10 |
| NC(=O)c1ccc(OCc2ccccc2F)cc1 | > 10 |

Target: T2, Protein mono-ADP-ribosyltransferase PARP10 (Homo sapiens) (UniProt Q53GL7)
T2 sequence (whole entry): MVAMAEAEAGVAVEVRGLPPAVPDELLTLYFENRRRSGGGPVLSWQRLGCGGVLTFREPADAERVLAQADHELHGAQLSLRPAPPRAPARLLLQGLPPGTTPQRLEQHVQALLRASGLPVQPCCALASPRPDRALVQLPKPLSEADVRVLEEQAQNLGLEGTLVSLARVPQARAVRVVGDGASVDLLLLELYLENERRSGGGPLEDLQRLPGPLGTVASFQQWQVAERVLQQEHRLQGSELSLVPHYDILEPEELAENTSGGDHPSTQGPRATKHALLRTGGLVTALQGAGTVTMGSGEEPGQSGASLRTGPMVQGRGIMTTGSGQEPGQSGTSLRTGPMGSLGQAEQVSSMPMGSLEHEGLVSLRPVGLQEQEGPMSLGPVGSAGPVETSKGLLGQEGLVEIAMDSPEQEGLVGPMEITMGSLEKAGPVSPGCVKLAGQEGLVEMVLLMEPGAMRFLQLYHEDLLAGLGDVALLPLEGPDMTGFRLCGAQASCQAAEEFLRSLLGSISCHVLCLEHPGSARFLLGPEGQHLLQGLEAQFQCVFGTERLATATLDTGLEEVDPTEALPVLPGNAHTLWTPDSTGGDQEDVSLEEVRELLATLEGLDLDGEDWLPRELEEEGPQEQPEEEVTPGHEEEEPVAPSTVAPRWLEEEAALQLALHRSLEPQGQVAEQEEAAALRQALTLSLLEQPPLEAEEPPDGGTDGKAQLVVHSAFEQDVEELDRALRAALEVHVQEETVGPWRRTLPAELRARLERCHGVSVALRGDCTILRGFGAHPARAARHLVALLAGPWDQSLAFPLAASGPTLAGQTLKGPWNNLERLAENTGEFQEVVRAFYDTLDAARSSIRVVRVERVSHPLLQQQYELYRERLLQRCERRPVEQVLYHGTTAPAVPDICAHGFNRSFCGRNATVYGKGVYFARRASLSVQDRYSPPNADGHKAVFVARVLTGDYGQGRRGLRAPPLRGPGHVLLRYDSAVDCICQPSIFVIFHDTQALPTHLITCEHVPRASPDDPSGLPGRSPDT
Conditions: U2OS
Description: Stabilization of ARTD10 in human U2OS cells assessed as increase in melting temperature at 10 uM by CESTA

| SMILES | Tm [°C] |
| --- | --- |
| NC(=O)c1ccc(Oc2ccc(C=O)cc2)cc1 | 54 to 56 |
| NC(=O)c1ccc(OCc2ccccc2F)cc1 | 54 to 56 |

Target: T3, Protein mono-ADP-ribosyltransferase PARP16 (Homo sapiens, UniProt Q8N5Y8)
T3 sequence (Q8N5Y8 whole entry): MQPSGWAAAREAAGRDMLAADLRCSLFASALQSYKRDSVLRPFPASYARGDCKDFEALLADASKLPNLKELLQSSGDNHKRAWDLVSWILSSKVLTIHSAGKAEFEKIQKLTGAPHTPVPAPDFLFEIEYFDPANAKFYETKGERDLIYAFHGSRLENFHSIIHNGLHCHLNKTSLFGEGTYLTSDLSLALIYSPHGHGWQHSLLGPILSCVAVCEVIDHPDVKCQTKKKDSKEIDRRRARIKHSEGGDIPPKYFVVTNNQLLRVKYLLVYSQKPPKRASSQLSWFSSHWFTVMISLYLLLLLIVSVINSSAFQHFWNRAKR
Experiment: Inhibition of N-terminal His-tagged human ARTD15 (1 to 280 residues) expressed in Escherichia coli Rosetta2 (DE3) after 24 hrs in presence of NAD+
Conditions: not given

| SMILES | IC50 [µM] |
| --- | --- |
| NC(=O)c1ccc(Oc2ccc(C(=O)O)cc2)cc1 | > 10 |
| COc1ccc(C(N)=O)cc1 | > 10 |
| NC(=O)c1ccc(Oc2ccc(C=O)cc2)cc1 | > 10 |
| NC(=O)c1ccc(OCc2ccccc2F)cc1 | > 10 |

Reference: ChEMBL document CHEMBL4270552, “4-(Phenoxy) and 4-(benzyloxy)benzamides as potent and selective inhibitors of mono-ADP-ribosyltransferase PARP10/ARTD10” (Eur J Med Chem, 2018)
